The structures appear in SMILES notation.

The target of this experiment is Coagulation factor X (Homo sapiens, UniProt P00742). Description: Binding affinity was evaluated against Coagulation factor X.
Sequence of Coagulation factor X (P00742 41-179 limits assumed): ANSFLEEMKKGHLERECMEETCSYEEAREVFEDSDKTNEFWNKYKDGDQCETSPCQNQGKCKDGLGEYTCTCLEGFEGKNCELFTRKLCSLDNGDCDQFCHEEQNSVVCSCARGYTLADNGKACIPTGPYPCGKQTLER
Sequence of Coagulation factor X (P00742 235-488 limits assumed): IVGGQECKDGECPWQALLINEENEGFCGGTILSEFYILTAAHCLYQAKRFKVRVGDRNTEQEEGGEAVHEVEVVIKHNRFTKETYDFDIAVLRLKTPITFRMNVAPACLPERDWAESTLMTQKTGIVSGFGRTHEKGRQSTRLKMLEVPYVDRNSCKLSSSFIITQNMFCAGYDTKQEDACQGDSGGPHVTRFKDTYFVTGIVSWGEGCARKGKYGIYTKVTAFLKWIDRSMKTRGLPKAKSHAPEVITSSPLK
As for `Cc1c(F)c(Oc2cccc(C(=N)N)c2)nc(N2CCC[C@H]2CO)c1F`, the inhibitory constant (Ki) is greater than 5 µM.
As for `Cc1c(F)c(Oc2cccc(C(=N)N)c2)nc(N2CCN(CC(=O)N3CCOCC3)CC2)c1F`, the figure is greater than 5 µM; as for `N=C(N)c1ccccc1` [BENZAMIDINE], 0.41 µM; as for `Cc1c(F)c(NCCCN2CCCC2=O)nc(Oc2cccc(C(=N)N)c2)c1F`, greater than 5 µM.
As for `Cc1c(F)c(Oc2cccc(C(=N)N)c2)nc(N2CCN(c3ccc4c(c3)OCO4)CC2)c1F`, the figure is greater than 5 µM; as for `Cc1c(F)c(Oc2cccc(C(=N)N)c2)nc(OC2CCNC2)c1F` (stereo not drawn), greater than 5 µM; as for `CCCOCCNc1nc(Oc2cccc(C(=N)N)c2)c(F)c(C)c1F`, greater than 5 µM.
As for `Cc1c(F)c(NC2CCCCC2)nc(Oc2cccc(C(=N)N)c2)c1F`, the figure is greater than 5 µM; as for `Cc1cccc(C)c1N1CCN(c2nc(Oc3cccc(C(=N)N)c3)c(F)c(C)c2F)CC1`, greater than 5 µM; as for `Cc1c(F)c(Oc2cccc(C(=N)N)c2)nc(N2CCN(C)CC2)c1F`, greater than 5 µM.
In the case of `Cc1c(F)c(NCCN(C)C)nc(Oc2cccc(C(=N)N)c2)c1F`, the Ki was greater than 5 µM.
In the case of `N=C(N)c1ccc(/C=C2/CCCC/C(=C/c3ccc(C(=N)N)cc3)C2=O)cc1`, the Ki worked out at 0.013 µM. This lies in the double-digit nanomolar range.
In turn, `Cc1c(F)c(Oc2cccc(C(=N)N)c2)nc(N2CCN(C3CCCCC3)CC2)c1F` registered a Ki of 0.495 µM.
As for `Cc1c(F)c(Oc2cccc(C(=N)N)c2)nc(N2CCC(C)(c3ccccc3)CC2)c1F`, the figure is 0.56 µM; as for `CC(=N)N1CCC(Oc2nc(Oc3cccc(C(=N)N)c3)c(F)c(C)c2F)C1` (stereo not drawn), greater than 5 µM; as for `Cc1c(F)c(Oc2cccc(C(=N)N)c2)nc(N2CCN(c3ccco3)CC2)c1F`, greater than 5 µM.
Then `CCOC(=O)C1CCCN(c2nc(Oc3cccc(C(=N)N)c3)c(F)c(C)c2F)C1` (stereo not drawn), with greater than 5 µM; and `N=C(N)c1cccc(COc2ccccc2)c1`, with 0.0068 µM.

A word on the Ki: it is a measure of affinity in units of concentration, obtained from inhibition or displacement. A higher Ki goes with weaker binding.
